# Source: BindingDB's records for doi:10.1016/j.bmcl.2004.08.039 (Glaxosmithkline, 2004)
# Target: T1, Dimer of Gag-Pol polyprotein [501-599,Q508K,L534I,L564I,C568A,C596A] (Human immunodeficiency virus 1, UniProt P03367, C568A/C596A/L534I/L564I/Q508K)
# T1 construct: 501-599
# Assay: Protease Inhibition Assay
# Conditions: pH 6.4; 25 °C
# Experimental: The Ki values were determined using fluorogenic substrate, 2-(aminobenzoyl)-Thr-Ile-Nle-Phe(p-NO2)-Gln-ArgNH2. A standard curve relating changes in fluorescent intensity to changes in concentration of product was used to convert fluorescent changes into molar velocities. The amount of cleavage was determined by HPLC.
row,Compound,Ki [nM]
1,"NC(=O)c1cccc(C[C@H]2C[C@H](Cc3ccccc3)N(C[C@@H](O)C[C@@H](Cc3ccccc3)C(=O)N[C@H]3c4ccccc4C[C@H]3O)C2=O)c1 [3-{[(3S,5R)-5-benzyl-1-[(2S,4R)-4-benzyl-2-hydroxy-4-{[(1S,2R)-2-hydroxy-2,3-dihydro-1H-inden-1-yl]carbamoyl}butyl]-2-oxopyrrolidin-3-yl]methyl}benzamide]",0.1
2,"CCOC(=O)CNC(=O)Nc1cccc(C[C@H]2C[C@H](Cc3ccccc3)N(C[C@@H](O)C[C@@H](Cc3ccccc3)C(=O)N[C@H]3c4ccccc4C[C@H]3O)C2=O)c1 [ethyl 2-{[(3-{[(3S,5R)-5-benzyl-1-[(2S,4R)-4-benzyl-2-hydroxy-4-{[(1S,2R)-2-hydroxy-2,3-dihydro-1H-inden-1-yl]carbamoyl}butyl]-2-oxopyrrolidin-3-yl]methyl}phenyl)carbamoyl]amino}acetate]",0.1
3,"O=C(NCCN1CCOCC1)c1cccc(C[C@H]2C[C@H](Cc3ccccc3)N(C[C@@H](O)C[C@@H](Cc3ccccc3)C(=O)N[C@H]3c4ccccc4C[C@H]3O)C2=O)c1 [3-{[(3S,5R)-5-benzyl-1-[(2S,4R)-4-benzyl-2-hydroxy-4-{[(1S,2R)-2-hydroxy-2,3-dihydro-1H-inden-1-yl]carbamoyl}butyl]-2-oxopyrrolidin-3-yl]methyl}-N-[2-(morpholin-4-yl)ethyl]benzamide]",0.15
4,"N#CCOc1cccc(C[C@H]2C[C@H](Cc3ccccc3)N(C[C@@H](O)C[C@@H](Cc3ccccc3)C(=O)N[C@H]3c4ccccc4C[C@H]3O)C2=O)c1 [(2R,4S)-2-benzyl-5-[(3S,5R)-5-benzyl-3-{[3-(cyanomethoxy)phenyl]methyl}-2-oxopyrrolidin-1-yl]-4-hydroxy-N-[(1S,2R)-2-hydroxy-2,3-dihydro-1H-inden-1-yl]pentanamide]",0.08
5,"Nc1ccc(CC2C[C@H](Cc3ccccc3)N(C[C@@H](O)C[C@@H](Cc3ccccc3)C(=O)N[C@H]3c4ccccc4C[C@H]3O)C2=O)cc1 (stereo partly drawn) [(2R,4S)-5-[(5R)-3-[(4-aminophenyl)methyl]-5-benzyl-2-oxopyrrolidin-1-yl]-2-benzyl-4-hydroxy-N-[(1S,2R)-2-hydroxy-2,3-dihydro-1H-inden-1-yl]pentanamide]",2.3
6,"NC(=O)COc1cccc(C[C@H]2C[C@H](Cc3ccccc3)N(C[C@@H](O)C[C@@H](Cc3ccccc3)C(=O)N[C@H]3c4ccccc4C[C@H]3O)C2=O)c1 [(2R,4S)-2-benzyl-5-[(3S,5R)-5-benzyl-3-{[3-(carbamoylmethoxy)phenyl]methyl}-2-oxopyrrolidin-1-yl]-4-hydroxy-N-[(1S,2R)-2-hydroxy-2,3-dihydro-1H-inden-1-yl]pentanamide]",0.09
7,"N#Cc1ccc(CC2C[C@H](Cc3ccccc3)N(C[C@@H](O)C[C@@H](Cc3ccccc3)C(=O)N[C@H]3c4ccccc4C[C@H]3O)C2=O)cc1 (stereo partly drawn) [(2R,4S)-2-benzyl-5-[(5R)-5-benzyl-3-[(4-cyanophenyl)methyl]-2-oxopyrrolidin-1-yl]-4-hydroxy-N-[(1S,2R)-2-hydroxy-2,3-dihydro-1H-inden-1-yl]pentanamide]",0.34
8,"CCNC(=O)Nc1cccc(C[C@H]2C[C@H](Cc3ccccc3)N(C[C@@H](O)C[C@@H](Cc3ccccc3)C(=O)N[C@H]3c4ccccc4C[C@H]3O)C2=O)c1 [(2R,4S)-2-benzyl-5-[(3S,5R)-5-benzyl-3-({3-[(ethylcarbamoyl)amino]phenyl}methyl)-2-oxopyrrolidin-1-yl]-4-hydroxy-N-[(1S,2R)-2-hydroxy-2,3-dihydro-1H-inden-1-yl]pentanamide]",0.2
9,"N#Cc1cccc(C[C@H]2C[C@H](Cc3ccccc3)N(C[C@@H](O)C[C@@H](Cc3ccccc3)C(=O)N[C@H]3c4ccccc4C[C@H]3O)C2=O)c1 [(2R,4S)-2-benzyl-5-[(3S,5R)-5-benzyl-3-[(3-cyanophenyl)methyl]-2-oxopyrrolidin-1-yl]-4-hydroxy-N-[(1S,2R)-2-hydroxy-2,3-dihydro-1H-inden-1-yl]pentanamide]",0.05
10,"O=C(N[C@H]1c2ccccc2C[C@H]1O)[C@H](Cc1ccccc1)C[C@H](O)CN1C(=O)[C@@H](Cc2cccc(O)c2)C[C@@H]1Cc1ccccc1 [(2R,4S)-2-benzyl-5-[(3S,5R)-5-benzyl-3-[(3-hydroxyphenyl)methyl]-2-oxopyrrolidin-1-yl]-4-hydroxy-N-[(1S,2R)-2-hydroxy-2,3-dihydro-1H-inden-1-yl]pentanamide]",0.05
11,"COC(=O)c1cccc(C[C@H]2C[C@H](Cc3ccccc3)N(C[C@@H](O)C[C@@H](Cc3ccccc3)C(=O)N[C@H]3c4ccccc4C[C@H]3O)C2=O)c1 [methyl 3-{[(3S,5R)-5-benzyl-1-[(2S,4R)-4-benzyl-2-hydroxy-4-{[(1S,2R)-2-hydroxy-2,3-dihydro-1H-inden-1-yl]carbamoyl}butyl]-2-oxopyrrolidin-3-yl]methyl}benzoate]",0.42
12,"Nc1cccc(C[C@H]2C[C@H](Cc3ccccc3)N(C[C@@H](O)C[C@@H](Cc3ccccc3)C(=O)N[C@H]3c4ccccc4C[C@H]3O)C2=O)c1 [(2R,4S)-5-[(3S,5R)-3-[(3-aminophenyl)methyl]-5-benzyl-2-oxopyrrolidin-1-yl]-2-benzyl-4-hydroxy-N-[(1S,2R)-2-hydroxy-2,3-dihydro-1H-inden-1-yl]pentanamide]",0.1
13,"O=C(N[C@H]1c2ccccc2C[C@H]1O)[C@H](Cc1ccccc1)C[C@H](O)CN1C(=O)C(Cc2ccncc2)C[C@@H]1Cc1ccccc1 (stereo partly drawn) [(2R,4S)-2-benzyl-5-[(5R)-5-benzyl-2-oxo-3-(pyridin-4-ylmethyl)pyrrolidin-1-yl]-4-hydroxy-N-[(1S,2R)-2-hydroxy-2,3-dihydro-1H-inden-1-yl]pentanamide]",0.31
14,"O=C(NCCOCCO)c1cccc(C[C@H]2C[C@H](Cc3ccccc3)N(C[C@@H](O)C[C@@H](Cc3ccccc3)C(=O)N[C@H]3c4ccccc4C[C@H]3O)C2=O)c1 [3-{[(3S,5R)-5-benzyl-1-[(2S,4R)-4-benzyl-2-hydroxy-4-{[(1S,2R)-2-hydroxy-2,3-dihydro-1H-inden-1-yl]carbamoyl}butyl]-2-oxopyrrolidin-3-yl]methyl}-N-[2-(2-hydroxyethoxy)ethyl]benzamide]",0.24
15,"NC(=O)c1cccc(C[C@H]2C[C@H](Cc3ccccc3)N(C[C@@H](O)C[C@@H](Cc3ccc(OCCO)cc3)C(=O)N[C@H]3c4ccccc4C[C@H]3O)C2=O)c1 [3-{[(3S,5R)-5-benzyl-1-[(2S,4R)-2-hydroxy-4-{[(1S,2R)-2-hydroxy-2,3-dihydro-1H-inden-1-yl]carbamoyl}-4-{[4-(2-hydroxyethoxy)phenyl]methyl}butyl]-2-oxopyrrolidin-3-yl]methyl}benzamide]",0.05
